{"source": "patent US20260183393A1", "about": "“IMMUNOSUPPRESSANT-RESISTANT MODIFIED ALLOGENEIC MODIFIED IMMUNE CELLS AND METHODS FOR USE THEREOF” (Beam Therapeutics Inc., priority 2023, published 2026)", "key": {"[1]": {"system": "alloreactive T cells", "test": "Mixed leukocyte reaction: priming and proliferation of alloreactive T cells with immunosuppressants", "assay_type": "cell-based, human", "details": "for proliferation of alloreactive T cells: CellTrace Violet-labeled T cells with PBMCs from HLA disparate donors, RPM 10^−2 to 10^−4 mg mL^−1, TAC 10^0 to 10^−2 mg mL^−1, relative to VEH; for proliferation of the T cells: rapamycin 0.001 μg/mL or tacrolimus 0.1 μg/mL, HLA-mismatched PBMCs 1:1, day 7, CellTrace dilution", "procedure": "Purified primary human T cells (effector cells) from a donor (Donor #1) were labeled with CellTrace™ dye and co-cultured at a 1:1 effector-to-target cell ratio with HLA-mismatched peripheral blood mononuclear cells (PBMCs) from another donor (Donor #2) that were pretreated with mitomycin C to inhibit their growth (mitomycin C inhibits cell growth). The cells were co-cultured in the presence of the immunosuppressant rapamycin (0.001 μg/mL) or tacrolimus (0.1 μg/mL) or in the presence of dimethylsulfoxide (DMSO) in place of any immunosuppressant. The immunosuppressant or DMSO was re-administered to the cultures every 48 hours. On day 7, proliferation was measured as dilution of the CellTrace™ dye assessed using flow cytometry. The numbers at the lower-left of each plot indicate the percent of total cells counted falling within the indicated region.\nFirst, human leukocyte antigen (HLA) mismatched peripheral blood mononuclear cells (PBMCs) from a donor were co-cultured in the presence and absence of an immunosuppressant agents with T cells from a different donor that were labeled using a CellTrace dye for measuring cell proliferation. The peripheral blood mononuclear cells (PBMC) cells were treated with mitomycin C prior to being co-cultured to prevent proliferation of the PBMC cells.\nIt was first determined if immunosuppressants mitigate the in vitro priming of alloreactive T cells. To do so, peripheral blood mononuclear cells and CellTrace Violet-labeled T cells from HLA disparate donors were cultured in the presence of rapamycin (RPM), tacrolimus (TAC) or vehicle (VEH) control. […] Next, it was tested whether immunosuppressants alleviated in vivo T cell-driven rejection of allogeneic HLA-I CAR-T cells. Five cohorts of human immune system (HIS) mice derived from unrelated human donors were injected daily with RPM, TAC, or VEH for 2 weeks, and at 1-day post-treatment initiation all mice were co-infused with an equal amount of allogeneic HLA^+ and HLA-deficient CAR-T cells (FIG. 16A). Cohorts #3 and #4 also received syngeneic human immune system (HIS) mouse-derived CAR-T cells to control for autologous T cell persistence. […]\nFor the study described in FIGS. 21A to 21C, CellTrace Violet (Thermo Fisher Scientific) CD3^+ T cells (effectors) and CD3-depleted PBMCs (targets) from HLA disparate donors were cultured in triplicate at a 1:1 ratio in complete medium supplemented with 300 U mL^−1 IL-2. […] Frequency of dividing effector CD8^+ and CD4^+ T cells was measured at day 5 and 7 post-stimulation by flow cytometry."}, "[2]": {"system": "NK cells", "test": "NK cell-mediated lysis of HLA class-I negative T cells with immunosuppressants", "assay_type": "cell-based, human", "details": "10 μg/mL; 4:1 effector-to-target ratio; 48 hours of co-culture", "procedure": "The rightmost plots represent the ratio of HLA class-I negative (target cells) and positive T cells in the absence of any NK cells (effector cells) (i.e., a culture with an effector-to-target cell ratio (E:T) of 0:1 because the culture contained no effector cells and only the target cells). Primary human NK cells were activated in vitro with IL-2 and IL-15 cytokines for 72 hours. The activated NK cells were then cultured for 24 hours in the presence of rapamycin (10 μg/mL), tacrolimus (10 μg/mL), or a dimethylsulfoxide (DMSO) control. After the 24 hours, the NK cells were then co-cultured at a 4:1 effector-to-target ratio with an equal mixture of unedited HLA class-I positive (off-target cells) or beta-2-microglobulin (B2M) knock-out (HLA class-I deficient) T cells (target cells) in the presence or absence if the immunosuppressant rapamycin or tacrolimus. T cells co-cultured in the absence of NK cells (0:1 E:T ratio) were used as control. Following 48 hours of co-culture, the frequency of HLA class-I negative and positive T cells was assessed using flow cytometry by immunostaining for pan HLA class-I (ABC). The numbers within each plot indicate the percent of total cells counted falling within the indicated region, where the left regions correspond to HLA class-I negative cells and the right regions correspond to HLA class-I positive cells. […]"}}}
{"smiles": "C=CC[C@@H]1/C=C(\\C)C[C@H](C)C[C@H](OC)[C@H]2O[C@@](O)(C(=O)C(=O)N3CCCC[C@H]3C(=O)O[C@H](/C(C)=C/[C@@H]3CC[C@@H](O)[C@H](OC)C3)[C@H](C)[C@@H](O)CC1=O)[C@H](C)C[C@@H]2OC", "note": "[tacrolimus, Tacrolimus]", "values": [{"measurement": "proliferation of alloreactive T cells", "setting": "[1]", "value": "severely attenuated the proliferation of alloreactive T cells"}, {"measurement": "proliferation of the T cells", "setting": "[1]", "value": "hindered proliferation of the T cells"}, {"measurement": "NK cell-mediated lysis of HLA class-I negative T cells", "setting": "[2]", "value": "attenuated"}]}
{"smiles": "CO[C@H]1C[C@@H]2CC[C@@H](C)[C@@](O)(O2)C(=O)C(=O)N2CCCC[C@H]2C(=O)O[C@H]([C@H](C)C[C@@H]2CC[C@@H](O)[C@H](OC)C2)CC(=O)[C@H](C)/C=C(\\C)[C@@H](O)[C@@H](OC)C(=O)[C@H](C)C[C@H](C)/C=C/C=C/C=C/1C", "note": "[rapamycin, Rapamycin]", "values": [{"measurement": "proliferation of alloreactive T cells", "setting": "[1]", "value": "severely attenuated the proliferation of alloreactive T cells"}, {"measurement": "proliferation of the T cells", "setting": "[1]", "value": "hindered proliferation of the T cells"}, {"measurement": "NK cell-mediated lysis of HLA class-I negative T cells", "setting": "[2]", "value": "attenuated"}]}
